Literature values in paper PMC11187573, “Identification of SARS-CoV-2 Mpro inhibitors through deep reinforcement learning for de novo drug design and computational chemistry approaches” (RSC Medicinal Chemistry, 2024).
Read-outs that look alike come from different tables or passages of the source.

Tested on: Mpro
Conditions: ML dataset, cited from earlier work
[1] = Origin COVID_Moonshot, ref COVID Moonshot

| SMILES | IC50 [1] | IC50 (Origin ChEMBL, ref ChEMBL) |
| --- | --- | --- |
| O=C(NCc1cccs1)[C@@H](c1ccccc1)N1Cc2ccccc2C1=O [LON-WEI-f8a636e2-1] | 90.7 µM | – |
| O=S(=O)(Cc1[nH]c(-c2ccc(Cl)s2)c[s+]1)c1cccs1 [CHEMBL215733] | – | 18 µM |
| Cc1ccncc1NC(=O)N(Cc1ccccc1)c1cccc(Cl)c1 [EDG-MED-0da5ad92-20] | 22.9 µM | – |
| O=C(C[C@]1(C(=O)Nc2cncc3ccccc23)CCOc2ccc(Cl)cc21)N1CCN(C2CCOC2)CC1 (stereo partly drawn) [ALP-POS-5bb456a5-8] | 1.99 µM | – |
| Cn1c(=O)[nH]c2cncc(NC(=O)C3CCOc4ccc(Cl)cc43)c21 (stereo not drawn) | 20.7 µM | – |
| O=C(Cc1cccnc1)Nc1cccc(OC2CC(=O)N2)c1 (stereo not drawn) | 88.3 µM | – |
| O=C(Nc1cncc2ccccc12)C1CCN(Cc2ccn[nH]2)c2ccc(Cl)cc21 (stereo not drawn) [RAL-THA-8416115c-6] | 0.803 µM | – |
| Cc1ccncc1NC(=O)C1CCOc2ccc(Cl)cc21 (stereo not drawn) | 16 µM | – |
| COc1ccc2c(NC(=O)C3CCOc4ccc(Cl)cc43)noc2c1 (stereo not drawn) [JAG-UCB-52b62a6f-10] | 57.5 µM | – |
| COc1ccc(CC(=O)Nc2cncc3ccccc23)cc1 [RAL-THA-2d450e86-4] | 72.5 µM | – |
| O=C(Nc1cncc2ccccc12)C(CO)c1ccc(Cl)c(Cl)c1 (stereo not drawn) [MAT-POS-fce787c2-11] | 19.3 µM | – |
| CC(C)(C)c1ccc(N(C(=O)c2cocn2)C(C(=O)NCCc2cccc(F)c2)c2cccnc2)cc1 (stereo not drawn) [ALP-POS-02c6a514-50] | 0.557 µM | – |
| O=C(NCCc1cccc(F)c1)C(c1cccnc1)N(C(=O)c1ccco1)C1CCN(c2ccccc2)CC1 (stereo not drawn) [ALP-POS-b0bc6a46-28] | 79.6 µM | – |
| O=C(Nc1n[nH]c2ccncc12)C1CCOc2ccc(Cl)cc21 (stereo not drawn) [JAG-UCB-52b62a6f-16] | 70.3 µM | – |
| COCCNC(=O)C(c1cccnc1)N(C(=O)c1cocn1)c1ccc(C(C)(C)C)cc1 (stereo not drawn) [ALP-POS-88a7a97e-31] | 8.46 µM | – |
| CS(=O)(=O)Cc1ccc(N(C(=O)c2cocn2)C(C(=O)NCCc2cccc(F)c2)c2cccnc2)cc1 (stereo not drawn) [ALP-POS-ced8ea4d-11] | 27.7 µM | – |
| O=C(Cc1ccncc1Cl)Nc1cncc2ccccc12 [RAL-THA-2d450e86-34] | 52.6 µM | – |

| SMILES | IC50 [1] | IC50 (Origin ChEMBL, ref ChEMBL) |
| --- | --- | --- |
| CC[C@H](CO)Nc1nc(NCc2ccc(-c3ccccn3)cc2)c2ncn(C(C)C)c2n1 [CHEMBL518800, CC[C@H](CO)Nc1nc(NCc(cc2)ccc2-c2ncccc2)c2ncn(C(C)C)c2n1, reference compound] | – | 0.84 µM |
| O=C(Cc1cccc(Cl)c1)Nc1n[nH]c2ccc(F)cc12 [EDJ-MED-c8e7a002-9] | 94 µM | – |
| O=C1CC(C(=O)N2CCN(c3cccc(Cl)c3)CC2)c2ccccc2N1 (stereo not drawn) [MAT-POS-450cb4f9-1] | 20.9 µM | – |
| CC(C)(C)c1ccc(N(C(=O)c2cocn2)C(C(=O)NCC2CCCO2)c2cccnc2)cc1 (stereo not drawn) [ALP-POS-88a7a97e-27] | 5.15 µM | – |
| O=C(Oc1cncc(Br)c1)c1ccco1 [CHEMBL222234, O=C(c1ccco1)Oc1cc(Br)cnc1, reference compound] | – | 0.05 µM |
| Cc1nn(C)c(NCc2ccc(-c3cccs3)s2)c1[N+](=O)[O-] [CHEMBL375130] | – | 20 µM |
| Cc1ccncc1NC(=O)CN1C(=O)COc2ccc(Cl)cc21 | 49.4 µM | – |
| O=C(Cc1cncnc1)Nc1cc(F)cc(OC2CC(=O)N2)c1 (stereo not drawn) | 24.9 µM | – |
| O=C(Nc1cncc2ccccc12)C1CCOc2c1ccc(Cl)c2Cl (stereo not drawn) [ALP-POS-869ac754-2] | 3.31 µM | – |
| O=C(Cc1ccc(Cl)cc1)Nc1cncc2ccccc12 [RAL-THA-2d450e86-2] | 23.7 µM | – |
| COc1cc(Cl)cc(OC(=O)Nc2cccnc2)c1 [AGN-NEW-891393a6-1] | 4.1 µM | – |
| C[C@H]1COc2c(N3CCN(C)CC3)c(F)cc3c(=O)c(C(=O)O)cn1c23 [CHEMBL33] | – | 7.6 µM |
| CC(C)(C)c1ccc(N(C(=O)c2cn[nH]c2)C(C(=O)NCCc2cccc(F)c2)c2cccnc2)cc1 (stereo not drawn) [MAT-POS-f2460aef-5] | 5.33 µM | – |
| CNc1ccc(N(Cc2ccsc2)C(=O)Cn2nnc3ccccc32)cc1 [ALP-POS-c59291d4-4] | 11.5 µM | – |
| O=C(Nc1cncc2ccccc12)C(O)c1ccc(Cl)c(Cl)c1 (stereo not drawn) [MAT-POS-fce787c2-4] | 2.01 µM | – |
| O=C(Cc1ccc(Cl)c(F)c1)Nc1cncc2ccccc12 [RAL-THA-2d450e86-9] | 2.03 µM | – |
